We go through ten molecules from paper PMC12163657 (ACS Omega, 2025).

For orientation: IC50 means the point on the concentration scale where inhibition reaches its midpoint. Low readings indicate greater potency, high ones weaker potency. The half-life is the time needed for the level to fall by half in the phase considered. The low end stands for fast loss, the high end for slow loss. As usually defined, the hepatocyte CLint is a measure of how fast metabolising enzymes remove a compound, apart from limits set by blood flow. A low value points to greater metabolic stability. One may read the Cmax as the peak of the concentration-time curve. As a reminder, the fraction unbound is the share of the substance not bound to proteins or other matrix. The low end stands for little free substance, the high end for much free substance.

One data set has as its target T1, ERα LBD (Homo sapiens, UniProt P03372).
T1 sequence (P03372 311-547 limits assumed): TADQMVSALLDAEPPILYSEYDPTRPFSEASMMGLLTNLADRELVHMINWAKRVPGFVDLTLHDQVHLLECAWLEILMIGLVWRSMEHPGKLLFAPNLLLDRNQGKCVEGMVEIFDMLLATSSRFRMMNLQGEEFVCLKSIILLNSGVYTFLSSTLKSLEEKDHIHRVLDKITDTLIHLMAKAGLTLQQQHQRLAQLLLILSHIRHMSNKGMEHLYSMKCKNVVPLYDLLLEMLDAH
The experiment in a line: LanthaScreen TR-FRET ERα competitive binding assay. In general terms: TR-FRET usually uses a lanthanide donor and a delayed reading to cut background.

Data set [1] has as its target T2, ERα (Homo sapiens, UniProt P03372).
T2 sequence (P03372 1-595): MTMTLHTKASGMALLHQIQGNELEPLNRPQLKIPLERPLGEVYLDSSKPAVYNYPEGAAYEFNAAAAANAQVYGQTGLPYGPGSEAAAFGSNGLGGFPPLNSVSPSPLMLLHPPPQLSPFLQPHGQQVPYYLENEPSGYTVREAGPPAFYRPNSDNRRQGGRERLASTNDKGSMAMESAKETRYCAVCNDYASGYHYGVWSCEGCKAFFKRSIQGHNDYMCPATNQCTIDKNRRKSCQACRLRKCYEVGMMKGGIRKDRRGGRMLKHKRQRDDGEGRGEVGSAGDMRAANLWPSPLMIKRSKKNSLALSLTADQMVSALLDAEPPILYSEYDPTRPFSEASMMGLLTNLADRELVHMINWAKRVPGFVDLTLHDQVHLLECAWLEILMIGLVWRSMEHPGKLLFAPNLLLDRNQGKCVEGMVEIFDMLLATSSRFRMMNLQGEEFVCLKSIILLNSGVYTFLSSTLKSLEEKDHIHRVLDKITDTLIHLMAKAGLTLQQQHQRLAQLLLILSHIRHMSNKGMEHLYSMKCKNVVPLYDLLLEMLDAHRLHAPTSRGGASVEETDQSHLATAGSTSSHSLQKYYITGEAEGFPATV
The data set is described as follows: Alkaline phosphatase. In kind it is cell-based.

The nature of data set [2]: Mouse hepatocyte stability. It is filed as in vitro ADME. Particulars: hepatocytes.
Data set [3] in a line: Human hepatocyte stability. It is filed as in vitro ADME. As to conditions: hepatocytes.
A short description of data set [4]: In vivo mouse oral single dose PK. As to conditions: for total AUCinf / free AUCinf: oral single dose; for free AUCinf: estimated based on the percent free fraction; for Cmax / half-life: plasma, po.
A short description of data set [5]: Plasma protein binding, rapid equilibrium dialysis, mouse plasma. In kind it is in vitro ADME. As to conditions: undiluted plasma.
Data set [6] relates to E2-induced uterine wet weight. The experiment in a line: Ovariectomized mouse uterine wet weight study. It is filed as in vivo. As to conditions: dose giving 50% inhibition of E2-induced uterine wet weight; oral, once daily, 3 days.
For data set [7], the target named is T2, ERα. The experiment in a line: Alkaline phosphatase. It is filed as cell-based. Particulars: Ishikawa, read-out: AP % E max, Ishikawa (ECC-1) cells, agonist mode, 72 h.

As for `C[C@@H]1Cc2c([nH]c3ccccc23)[C@@H](c2ccc(OCCN3CC(CF)C3)cc2)N1CC(C)(C)F` [compound 23, C[C@@H]1Cc2c([nH]c3ccccc23)[C@H](N1CC(C)(C)F)c1ccc(cc1)OCCN1CC(CF)C1], the IC50 at ERα LBD is 1.58 nM. Besides, the IC50 at ERα [1] is 1.26 nM. In data set [2], this molecule came in with a half-life of 5.37 h and a hepatocyte CLint of 4.3 µL/min/1e6 cells. In data set [3], the half-life was 3.82 h and the hepatocyte CLint stood at 6.1 µL/min/1e6 cells. In addition, in data set [4], the “total AUCinf” value is 2289 ng·h/mL, the “free AUCinf” value is 3.9 ng·h/mL, the peak level (Cmax) was 186 ng/mL and the half-life was 7 h. The fraction unbound at 4 h, 1 µM in data set [5] stood at 0.0017. Besides, in data set [6], the “uterine wet weight ID50” value was under 0.1 mg/kg.
In the case of `CCCN1CC(Oc2ccc([C@@H]3c4[nH]c5ccccc5c4C[C@@H](C)N3C[C@@H](C)CO)cc2)C1` [compound 40, CCCN1CC(C1)Oc1ccc(cc1)[C@H]1N(C[C@@H](C)CO)[C@H](C)Cc2c1[nH]c1ccccc21], the IC50 on ERα LBD is 1.26 nM; against ERα [1], 3.16 nM. In addition, the Emax on ERα [7] was determined as 0.4%. Besides, the half-life in data set [2] turned out to be 3.05 h; in data set [3], 2.62 h. Also, the hepatocyte CLint is 7.6 µL/min/1e6 cells in data set [2] and 8.8 µL/min/1e6 cells in data set [3].
Turning to `C[C@@H]1Cc2c([nH]c3ccccc23)[C@@H](c2ccc(OCCN3CC(CF)C3)c(F)c2)N1CC(C)(C)F` [compound 26, C[C@@H]1Cc2c([nH]c3ccccc23)[C@H](N1CC(C)(C)F)c1ccc(c(c1)F)OCCN1CC(CF)C1], the figures for the IC50 on ERα LBD and at ERα [1] were 2.51 nM and 2 nM, respectively. Also, the Emax on ERα [7] was 2.1%. Besides, the half-life in data set [2] came to 3.78 h; in data set [3] it was 4.55 h. Moreover, the hepatocyte CLint was 6.1 µL/min/1e6 cells in data set [2] and 5.1 µL/min/1e6 cells in data set [3].
In data set [2], `CCCN1CC(Oc2cc(F)c([C@@H]3c4[nH]c5ccccc5c4C[C@@H](C)N3CC(C)(C)F)c(F)c2)C1` [compound 32, CCCN1CC(C1)Oc1cc(c(c(c1)F)[C@H]1N(CC(C)(C)F)[C@H](C)Cc2c1[nH]c1ccccc21)F] displayed a half-life of over 6 h and a hepatocyte CLint of under 3.9 µL/min/1e6 cells. In data set [3], the half-life turned out to be 5.4 h and the hepatocyte CLint came to 4.3 µL/min/1e6 cells. For the same molecule, in data set [4], the “total AUCinf” value worked out at 2743 ng·h/mL, the “free AUCinf” value was 0.3 ng·h/mL, the highest level (Cmax) was 219 ng/mL and the half-life is 15 h. The molecule further gave a fraction unbound at 4 h, 1 µM in data set [5] of 0.0001.
In the case of `CCCN1CC(Cc2cc(F)c([C@@H]3c4[nH]c5ccccc5c4C[C@@H](C)N3CC(C)(C)F)c(F)c2)C1` [compound 31, CCCN1CC(C1)Cc1cc(c(c(c1)F)[C@H]1N(CC(C)(C)F)[C@H](C)Cc2c1[nH]c1ccccc21)F], the IC50 on ERα LBD was 5.01 nM; on ERα [1], 1.58 nM. In addition, on ERα [7], the Emax worked out at 5.4%. Further, the half-life in data set [2] and in data set [3] was over 6 h throughout. Moreover, the hepatocyte CLint in data set [2] and in data set [3] was under 3.9 µL/min/1e6 cells throughout.
Consider `C[C@@H]1Cc2c([nH]c3ccccc23)[C@@H](c2c(F)cc(OCCN3CC(CF)C3)cc2F)N1CC(C)(C)F` [compound 30, C[C@@H]1Cc2c([nH]c3ccccc23)[C@H](N1CC(C)(C)F)c1c(cc(cc1F)OCCN1CC(CF)C1)F], for which, in data set [2], the half-life was over 6 h and the hepatocyte CLint is under 3.9 µL/min/1e6 cells. In data set [3], this molecule returned a half-life of 4.5 h and a hepatocyte CLint of 5.1 µL/min/1e6 cells. Moreover, in data set [4], the “total AUCinf” value was 2090 ng·h/mL, the “free AUCinf” value was 0.8 ng·h/mL, the Cmax turned out to be 112 ng/mL and the half-life is 11 h. In data set [5], the fraction unbound at 4 h, 1 µM worked out at 0.0004.
Turning to `CCCN1CC(Oc2ccc([C@@H]3c4[nH]c5ccccc5c4C[C@@H](C)N3CC(F)(F)COC)cc2)C1` [compound 41, CCCN1CC(C1)Oc1ccc(cc1)[C@H]1N(CC(F)(F)COC)[C@H](C)Cc2c1[nH]c1ccccc21], the IC50 at ERα LBD is 1 nM; on ERα [1] it was 5.01 nM. The “potency loss in AP (antag.) relative to 38” value on ERα [1] (replacing OH with OMe) amounted to 1.5 log. In addition, on ERα [7], the Emax stood at 0.9%. The half-life in data set [2] amounted to 1.27 h; in data set [3], 1.65 h. For the same molecule, the values for the hepatocyte CLint in data set [2] and in data set [3] were 18.2 µL/min/1e6 cells and 14.1 µL/min/1e6 cells, respectively.
For the molecule `CCCN1CC(Oc2ccc([C@@H]3c4[nH]c5ccccc5c4C[C@@H](C)N3CC(F)(F)CO)cc2)C1` [compound 38, CCCN1CC(C1)Oc1ccc(cc1)[C@H]1N(CC(F)(F)CO)[C@H](C)Cc2c1[nH]c1ccccc21], the IC50 at ERα LBD was 1 nM; against ERα [1] it was 0.158 nM. Also, the Emax on ERα [7] stood at 0%. Moreover, the half-life stood at 3.83 h in data set [2] and 1.27 h in data set [3]. The values for the hepatocyte CLint in data set [2] and in data set [3] were 6 µL/min/1e6 cells and 18.2 µL/min/1e6 cells, respectively.
On to `CCCN1CC(Oc2ccc([C@@H]3c4[nH]c5ccccc5c4C[C@@H](C)N3CCC(C)(C)O)cc2)C1` [compound 39, CCCN1CC(C1)Oc1ccc(cc1)[C@H]1N(CCC(C)(C)O)[C@H](C)Cc2c1[nH]c1ccccc21], for which the results for the IC50 at ERα LBD and at ERα [1] were 1.26 nM and 398 nM, respectively. Also, at ERα [7], the Emax came to 2%.
For `C[C@@H]1Cc2c([nH]c3ccccc23)[C@@H](c2ccc(OC3CN(C)C3)cc2)N1CC(C)(C)F` [compound 33, C[C@@H]1Cc2c([nH]c3ccccc23)[C@H](N1CC(C)(C)F)c1ccc(cc1)OC1CN(C)C1], in that order: 0.501 nM, 7.94 nM and 10%.
